Data as given in PMC6112376, “Comprehensive Analyses and Prioritization of Tox21 10K Chemicals Affecting Mitochondrial Function by in-Depth Mechanistic Studies” (Environmental Health Perspectives, 2018).
Where two headings read alike, the source gives them in different places.

Key:
[1] = system: mitochondrial respiratory chain complex V; format: biochemical, rat
[2] = system: mitochondrial respiratory chain complex IV; format: biochemical, rat
HepG2 cells [3] = test: ROS-Glo hydrogen peroxide (ROS) assay; format: cell-based, human
rat primary hepatocytes [4] = test: MMP assay in rat primary hepatocytes; conditions: for IC50: Rattus norvegicus, Hepatocyte
[5] = system: isolated rat liver mitochondria; test: Oxygen consumption, Clark-type oxygen electrode; format: biochemical
HepG2 cells [6] = test: cells; conditions: Homo sapiens; for Emax: HepG2, read-out: MMP assays efficacy (%) HepG2
[7] = system: Nrf2/ARE (ARE-bla HepG2 cells); test: ARE β-lactamase reporter gene assay; format: cell-based, human; conditions: 16 h incubation, mean±SD of three experiments
[8] = system: p53 (p53-bla HCT-116 cells); test: p53 β-lactamase reporter gene assay; format: cell-based, human; conditions: 16 h incubation; mean±SD of three experiments
hNSC = test: MMP assay in human neural stem cells (hNSC); format: cell-based; conditions: Homo sapiens, Neural stem cell, read-out: hNSC IC50 (MMP)
HepG2 cells [9] = test: Intracellular ATP content (cell viability) assay; format: cell-based, human; conditions: Homo sapiens
[10] = system: mitochondrial respiratory chain complex III; format: biochemical, rat
[11] = system: Caenorhabditis elegans strain PE255; test: In vivo C. elegans ATP status assay
[12] = system: Caenorhabditis elegans (Bristol N2); test: C. elegans larval development and growth assay
HepG2 cells [13] = conditions: cited from earlier work
[14] = target: T1, mitochondrial respiratory chain complex II (Rattus norvegicus, UniProt P21913+Q641Z9+Q6PCT8+Q920L2); test: Respiratory chain complex II activity; format: biochemical; conditions: tested up to 100μM
T1 construct: Submitochondrial particles were prepared by subjecting the intact rat mitochondria, isolated as described above, to three successive freeze–thaw cycles; from tissue; host or cells: rat liver mitochondria (submitochondrial particles)

[15] = system: mitochondrial respiratory chain complex I; format: biochemical, rat
[16] = system: HeLa cells expressing YFP-Parkin; test: Parkin translocation assay; format: cell-based, human
[17] = system: Caenorhabditis elegans (Bristol N2); conditions: Bristol N2 (wild type), Caenorhabditis elegans, in vivo
rat primary hepatocytes [18] = system: rat primary hepatocytes
[19] = 1 h, read-out: Rat hepatocytes IC50 (MMP)
[20] = read-out: MMP assays IC50 (µM) Rat Hepatocytes
[21] = HepG2, 1 h, read-out: HepG2 IC50 Galactose (MMP)
[22] = HepG2, 1 h, read-out: HepG2 IC50 Glucose (MMP)

T1 sequence (Q920L2 35-656): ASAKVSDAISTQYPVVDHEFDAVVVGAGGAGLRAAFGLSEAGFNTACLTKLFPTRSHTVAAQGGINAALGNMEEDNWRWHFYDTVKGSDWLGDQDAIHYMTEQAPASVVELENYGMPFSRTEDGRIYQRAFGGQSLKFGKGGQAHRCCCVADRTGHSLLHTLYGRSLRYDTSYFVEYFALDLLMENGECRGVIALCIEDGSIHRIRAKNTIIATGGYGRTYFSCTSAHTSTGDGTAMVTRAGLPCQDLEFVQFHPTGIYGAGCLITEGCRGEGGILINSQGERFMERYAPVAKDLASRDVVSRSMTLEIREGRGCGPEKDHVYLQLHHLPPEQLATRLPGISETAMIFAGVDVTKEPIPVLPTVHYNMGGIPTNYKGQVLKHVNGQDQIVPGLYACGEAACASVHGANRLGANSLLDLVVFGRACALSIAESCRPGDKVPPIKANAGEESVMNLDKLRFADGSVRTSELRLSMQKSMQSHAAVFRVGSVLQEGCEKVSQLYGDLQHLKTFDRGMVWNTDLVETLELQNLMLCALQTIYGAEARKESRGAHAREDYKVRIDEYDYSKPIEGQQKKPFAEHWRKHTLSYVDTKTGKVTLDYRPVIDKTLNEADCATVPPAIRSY
T1 sequence (P21913 31-282): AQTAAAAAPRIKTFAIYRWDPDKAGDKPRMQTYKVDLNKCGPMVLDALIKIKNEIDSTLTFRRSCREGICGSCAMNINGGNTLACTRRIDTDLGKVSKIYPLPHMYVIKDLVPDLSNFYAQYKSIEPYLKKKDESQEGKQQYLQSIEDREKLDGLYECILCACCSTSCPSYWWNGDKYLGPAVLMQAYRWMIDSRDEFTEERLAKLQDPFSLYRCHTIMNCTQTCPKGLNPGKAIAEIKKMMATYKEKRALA
T1 sequence (Q641Z9 1-169): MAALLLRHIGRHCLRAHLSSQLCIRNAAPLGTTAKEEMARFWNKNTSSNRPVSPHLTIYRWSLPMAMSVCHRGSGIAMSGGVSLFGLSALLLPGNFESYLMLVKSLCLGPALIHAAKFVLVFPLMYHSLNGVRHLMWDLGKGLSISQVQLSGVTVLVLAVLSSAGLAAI
T1 sequence (Q6PCT8 57-159): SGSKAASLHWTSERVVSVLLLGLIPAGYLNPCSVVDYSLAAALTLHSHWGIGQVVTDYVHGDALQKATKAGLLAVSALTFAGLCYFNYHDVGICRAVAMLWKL

## COc1cc2c(cc1OC)-c1cc3ccc(OC)c(OC)c3c[n+]1CC2 [Palmatine chloride hydrate]
[1]
  Complex V % inhibition (activity call): Inactive
[2]
  Complex IV % inhibition (activity call): Inactive
HepG2 cells [3]; 2 h treatment, mean±SD of three experiments
  ROS (HepG2) EC50: Inactive
Rat primary hepatocytes [4]; % of positive control, mean±SD of three experiments
  Rat hepatocytes (efficacy) (MMP): −101±2.09%
Rat primary hepatocytes [4]; [19]
  IC50: 6.74 ± 2.89 µM
Rat primary hepatocytes [4]; [20]
  IC50: 1.37 ± 0.7 µM
Rat primary hepatocytes [4]; rat hepatocytes, mean ± SD of three experiments
  MMP assays efficacy (%) Rat Hepatocytes: -72±21%
[5]; 0.8 µM, glutamate/malate driven state 3 respiration, isolated rat liver mitochondria
  I-ADP, % of control (O2 consumption rate): 91 (32.3) % of control
[5]; 0.8 µM, glutamate/malate driven state 4 respiration, isolated rat liver mitochondria
  I-sub, % of control (O2 consumption rate): 114 (10.9) % of control
[5]; 0.8 µM, succinate-driven state 3 respiration, isolated rat liver mitochondria
  II-ADP, % of control (O2 consumption rate): 96 (51.6) % of control
[5]; 0.8 µM, succinate-driven state 4 respiration, isolated rat liver mitochondria
  II-sub, % of control (O2 consumption rate): 119 (19.5) % of control
[5]; 4 µM, glutamate/malate driven state 3 respiration, isolated rat liver mitochondria
  I-ADP, % of control (O2 consumption rate): 76 (27.3) % of control
[5]; 4 µM, glutamate/malate driven state 4 respiration, isolated rat liver mitochondria
  I-sub, % of control (O2 consumption rate): 105 (10.1) % of control
[5]; 4 µM, succinate-driven state 3 respiration, isolated rat liver mitochondria
  II-ADP, % of control (O2 consumption rate): 89 (47.6) % of control
[5]; 4 µM, succinate-driven state 4 respiration, isolated rat liver mitochondria
  II-sub, % of control (O2 consumption rate): 103 (16.9) % of control
[5]; 20 µM, glutamate/malate driven state 3 respiration, isolated rat liver mitochondria
  I-ADP, % of control (O2 consumption rate): 70 (25.0) % of control
[5]; 20 µM, glutamate/malate driven state 4 respiration, isolated rat liver mitochondria
  I-sub, % of control (O2 consumption rate): 114 (10.9) % of control
[5]; 20 µM, succinate-driven state 3 respiration, isolated rat liver mitochondria
  II-ADP, % of control (O2 consumption rate): 85 (45.5) % of control
[5]; 20 µM, succinate-driven state 4 respiration, isolated rat liver mitochondria
  II-sub, % of control (O2 consumption rate): 116 (19.1) % of control
[5]; 100 µM, glutamate/malate driven state 3 respiration, isolated rat liver mitochondria
  I-ADP, % of control (O2 consumption rate): 77 (35.3) % of control
[5]; 100 µM, glutamate/malate driven state 4 respiration, isolated rat liver mitochondria
  I-sub, % of control (O2 consumption rate): 172 (26.6) % of control
[5]; 100 µM, succinate-driven state 3 respiration, isolated rat liver mitochondria
  II-ADP, % of control (O2 consumption rate): 56 (40.4) % of control
[5]; 100 µM, succinate-driven state 4 respiration, isolated rat liver mitochondria
  II-sub, % of control (O2 consumption rate): 114 (35.8) % of control
[5]; mitochondrial respiration in isolated rat liver mitochondria, Clark type oxygen electrode, over tested concentrations
  Potential Mechanism: Uncoupler + Inhibitor
HepG2 cells [6]; [21]
  IC50: 70.6 ± 4.79 µM
HepG2 cells [6]; [22]
  IC50: 55.7 ± 17.9 µM
HepG2 cells [6]; HepG2, read-out: MMP assays IC50 (µM) HepG2
  IC50: 12.6 µM
HepG2 cells [6]
  Emax: 86%
[7]
  ARE (HepG2) EC50: Inactive
[8]
  p53 (HCT-116) EC50: Inactive
hNSC; 1 h treatment, fresh re-sourced stocks, mean±SD of three experiments
  IC50: 34.1 ± 11.2 µM
HepG2 cells [9]; HepG2, 5 mM glucose, 40 h treatment, mean±SD of three experiments, read-out: ATP (HepG2, glucose) IC50
  IC50: 19 ± 9.49 µM
HepG2 cells [9]; HepG2, 10 mM galactose, 40 h treatment, mean±SD of three experiments, read-out: ATP (HepG2, galactose) IC50
  IC50: 27.1 ± 8.93 µM
[10]
  Complex III % inhibition (activity call): Inactive
[11]; 0.5 µM
  LUM: mean difference in luminescence (ATP content) relative to plate controls: 1.192
[11]; 1 µM
  LUM: mean difference in luminescence (ATP content) relative to plate controls: -0.05262
[11]; 5 µM
  LUM: mean difference in luminescence (ATP content) relative to plate controls: 0.04332
[11]; 10 µM
  LUM: mean difference in luminescence (ATP content) relative to plate controls: -0.02063
[11]; 25 µM
  LUM: mean difference in luminescence (ATP content) relative to plate controls: -0.0762
[11]; 50 µM
  LUM: mean difference in luminescence (ATP content) relative to plate controls: 0.2026
[11]; 75 µM
  LUM: mean difference in luminescence (ATP content) relative to plate controls: 0.01325
[11]; 100 µM
  LUM: mean difference in luminescence (ATP content) relative to plate controls: 0.2556
[12]; 0.5 µM
  EXT: mean difference in nematode size relative to plate controls: -0.01207
[12]; 1 µM
  EXT: mean difference in nematode size relative to plate controls: -0.07266
[12]; 5 µM
  EXT: mean difference in nematode size relative to plate controls: -0.05419
[12]; 10 µM
  EXT: mean difference in nematode size relative to plate controls: -0.03134
[12]; 25 µM
  EXT: mean difference in nematode size relative to plate controls: 0.08842
[12]; 50 µM
  EXT: mean difference in nematode size relative to plate controls: 0.1943
HepG2 cells [13]
  MMP assays efficacy (%) qHTS-HepG2: -99±8%
HepG2 cells [13]; read-out: MMP assays IC50 (µM), qHTS-HepG2
  IC50: 22.7 ± 5.23 µM
[14]
  Complex II % inhibition (activity call): Inactive
[15]; at 100μM
  Complex I % inhibition: 12.3±3.05 at 100μM %
[16]; HeLa cells stably expressing YFP-Parkin, treated for 2 h
  Parkin recruitment: Inactive

## C=C(c1ccc(C(=O)O)cc1)c1cc2c(cc1C)C(C)(C)CCC2(C)C [Bexarotene, reference compound]
[1]
  Complex V % inhibition (activity call): Inactive
[2]
  Complex IV % inhibition (activity call): Inactive
HepG2 cells [3]
  ROS (HepG2) EC50: Inactive
Rat primary hepatocytes [4]; [19]
  IC50: 39.9 µM
Rat primary hepatocytes [4]; [20]
  IC50: 9.08 ± 1.16 µM
[5]
  Potential Mechanism: Uncoupler + inhibitor
[5]; 0.8 µM
  I-ADP, % of control (O2 consumption rate): 92 (45.5) % of control
  I-sub, % of control (O2 consumption rate): 108 (17.4) % of control
  II-ADP, % of control (O2 consumption rate): 84 (65.0) % of control
  II-sub, % of control (O2 consumption rate): 93 (28.5) % of control
[5]; 4 µM
  I-ADP, % of control (O2 consumption rate): 86 (42.6) % of control
  II-ADP, % of control (O2 consumption rate): 81 (62.5) % of control
  II-sub, % of control (O2 consumption rate): 97 (29.8) % of control
[5]; 20 µM
  I-ADP, % of control (O2 consumption rate): 61 (29.8) % of control
  I-sub, % of control (O2 consumption rate): 155 (25.0) % of control
  II-ADP, % of control (O2 consumption rate): 39 (30.1) % of control
  II-sub, % of control (O2 consumption rate): 107 (32.7) % of control
[5]; 100 µM
  I-ADP, % of control (O2 consumption rate): 5 (2.8) % of control
  I-sub, % of control (O2 consumption rate): 36 (4.9) % of control
  II-ADP, % of control (O2 consumption rate): 6 (3.8) % of control
  II-sub, % of control (O2 consumption rate): 24 (5.1) % of control
HepG2 cells [6]; [21]
  IC50: 50.2 µM
HepG2 cells [6]; [22]
  IC50: 50 µM
HepG2 cells [6]
  Emax: 106%
[7]; Homo sapiens, HepG2, read-out: ARE (HepG2) EC50
  EC50: 11.5 ± 0.75 µM
hNSC; 1 h
  IC50: 22.3 µM
HepG2 cells [9]; HepG2, 40 h, read-out: ATP (HepG2, galactose) IC50
  IC50: 63.2 µM
HepG2 cells [9]; HepG2, 40 h, read-out: ATP (HepG2, glucose) IC50
  IC50: 63.2 µM
[10]
  Complex III % inhibition (activity call): Inactive
[12]; Caenorhabditis elegans, read-out: LEC EXT: lowest effect concentration for extinction, a measure of nematode size
  minimal effective concentration: 10 µM
HepG2 cells [13]
  MMP assays efficacy (%) qHTS-HepG2: -124±6%
HepG2 cells [13]; read-out: MMP assays IC50 (µM) qHTS-HepG2
  IC50: 16.5 ± 3.95 µM
[17]
  LEC (lowest effect concentration), larval growth assay: ≤ 10 µM
[14]
  Complex II % inhibition (activity call): Inactive
[15]
  Complex I % inhibition (activity call): Inactive
Rat primary hepatocytes [18]
  MMP assays efficacy (%) Rat Hepatocytes: -112±7%
  Rat hepatocytes (efficacy) (MMP): 39.9±5.09 ( −93.8±8.55 ) %
[16]
  Parkin recruitment: Inactive
